Data set [1] is described as follows: Human serum stability assay (SDS-PAGE autoradiograph). Format: in vitro ADME. The conditions noted are these: incubated with human serum 1 h at 37° C., pH 7.4, non-reducing SDS-PAGE. The protocol:
FIGS. 4A and 4B show stability testing for compound 3*, namely the analysis of ^197(m)Hg-incorporation into human serum proteins by SDS-PAGE (20% SDS-polyacrylamide gel autoradiograph (FIG. 4A), showing 197(m)Hg-labeled bands, and Coomassie staining (FIG. 4B), showing bands of human serum proteins; Lane 1: ^197(m)>Hg-radiolabeled bispidine 3*. Lane 2: ^197(m)Hg-radiolabeled EDTA. M: molecular-weight size marker).
Human serum “off the clot” (5 ml) stored at −20° C. was slowly thawed on ice and filtered using syringe filters with a pore size of 0.2 μm. Two aliquots of filtered serum (2×220 μl) were mixed with 1 M HEPES/NaOH buffer (pH 7.4, 2×45 μl). Separately, 2×200 μl solution (1:1 EtOH:H2O, pH 6) of 3* (˜4 MBq) and 197(m)HgCl2/EDTA (˜5 MBq, 10 μg EDTA) had 1 M HEPES/NaOH buffer (pH 8.0, 2×20 μl) added to increase solution pH to 7.4. Then 135 μl of each 197(m)Hg-radiolabeled sample was added to one of the previously prepared serum/buffer solutions (265 μl) and incubated for 1 h at 37° C. 50 μl aliquots were then taken and mixed with 50 μl of 2× Laemmli sample buffer (Bio-Rad Laboratories), N.B. no reducing agent was added and the samples were not heated. The mixtures were then analyzed by non-reducing SDS-PAGE with acrylamide concentrations of 5% in the stacking gel and 20% in the resolving gel. 2 μl of each sample were loaded into each gel well. […]

Data set [2] in a line: Stability test with excess of sulfur-containing competitors (radio-TLC). It is filed as physicochemical. On the procedure: (§1) After pH-adjustment of the hydrochloric acid solution of [197(m)Hg]HgCl2(aq) (˜55 MBq, 20 μl, pH 1), by addition of 0.5 M HEPES buffer (pH 8, 200 μl), EtOH (200 μl), 6 M NaOH(aq) (11 μl), and 1 M NaOH(aq) (2 μl), a 1 mg/ml acetonitrile solution of 2 (12 μl, 14 nmol) was added. This solution (pH 6, 445 μl) was mixed at 50° C. for 1 h. The radiochemical yield of 3* was determined by radio-TLC (iTLC ACN+0.1% TFA, RP-18 TLC 9:1 ACN: H2O+0.1% TFA) as >95%. Purification and solvent change were carried out with a C8 cartridge (500 mg). After washing with water the major product was eluted with 7:3 EtOH:H2O from the cartridge. The last 2 fractions contained ˜16 MBq and ˜10 MBq respectively. The ˜16 MBq fraction had 3×200 μl extracted (˜4 MBq each). These fractions then had 1 competitor added each (1 mg/ml, 10 μl): tris(2-mercaptoethyl)ammonium oxalate, glutathione and Na2S. The mixtures were left at rt and checked by radio-TLC after 5 min, 1 h and 2 d, the only degradation observed was ˜4% after 2 d in the Na2S mixture. The ˜10 MBq fraction was divided into 2×500 μl. The first lot was used to test the stability of 3* in the highly aqueous solvent system necessary for biodistribution studies, this was diluted from 70% EtOH(aq) to ˜10% EtOH(aq) with brine (3.5 ml). […]

A short description of data set [3]: Stability in highly aqueous solvent system for biodistribution studies. It is filed as physicochemical. To be noted: diluted from 70% EtOH(aq) to ~10% EtOH(aq) with brine. The protocol:
as §1

The nature of the next data set: Volatility test. It is filed as physicochemical. To be noted: 70% EtOH(aq), 50° C., dry nitrogen stream 1 h. The protocol: as §1
Data set [4] in a line: Biodistribution in healthy male Wistar rats. Format: in vivo. The source says: FIG. 5 show biodistribution of compound 3* in healthy male Wistar rats (^197(m)HgCl2: n=4, 3*: n=8; ˜300 kBq per animal; all other organs measured well below 1% ID/g).

“Also recorded” adds a separate entry of the source.

`CCCC[C@]1(O)C2(c3ccccc3)CN3Cc4cccc[c]4[Hg][c]4ccccc4CN(C2)C[C@]1(c1ccccc1)C3` [3*, 9-butyl-8,10-diphenyl-6,10:8,12-dimethanodibenzo[c,f][1,9]diaza[5]mercuracyclotetradecan-9-ol]: the “197(m)Hg release (demetallation) and binding to serum proteins” value in data set [1] was “there isn't any observable protein interaction; also recorded: neither 197(m)Hg release (demetallation) nor binding to serum proteins is detectable”. Moreover, in data set [2] (Na2S competitor (1 mg/ml, 10 μl), rt, after 2 d), the “degradation observed by radio-TLC” value was roughly 4%. In addition, the “chemical stability against sulfur-containing competitors” value in data set [2] (excess of glutathione, tris(2-mercaptoethyl)ammonium oxalate and sodium sulfide) is on record as “high chemical stability”. The “stability of the solution by radio-TLC” value in data set [3] is on record as “good stability”. Besides, the “loss of activity by evaporation (volatility)” value in “Volatility test” was “no observable loss by evaporation”. The “biodistribution, all other organs (not shown in FIG. 5)” value in data set [4] (healthy male Wistar rats, ~300 kBq per animal) is reported as “below 1 % ID/g”. The “demetallation and retention in the kidneys” value in data set [4] (healthy rats, biodistribution and SPECT) is “no indication of demetallation and retention in the kidneys”. In data set [4] (healthy rats, normal micturition during a 24 h period), the “organ / renal clearance” value is reported as “good organ clearance; also recorded: good renal clearance”.

The values are drawn from patent US20210228748A1, “IN VIVO STABLE HG-197(M) COMPOUNDS, METHOD FOR THE PRODUCTION THEREOF AND USE THEREOF IN NUCLEAR MEDICAL DIAGNOSTICS AND ENDORADIONUCLIDE THERAPY (THERANOSTICS)” (HELMHOLTZ-ZENTRUM DRESDEN - […].V., priority 2017, published 2021).
